# Data published in patent US5658885A, “Amidino and guanidino substituted boronic acid inhibitors of trypsin-like enzymes” (The DuPont Merck Pharmaceutical Company, priority 1994, dated 1997).
# Counter-ions that a name gives are not always drawn.
# Biological target: T1, human thrombin (Homo sapiens, UniProt P00734)
# T1 construct: 0.2-0.5 nM human thrombin or human factor Xa; purchased Enzyme Research Laboratories, South Bend, Ind
# Assay: Inhibition of thrombin hydrolysis of chromogenic substrate S2238 (Ki)
# Type: biochemical
# Details: S2238, pH 7.5
# Protocol: The effectiveness of compounds of the present invention as inhibitors of blood coagulation proteases was determined using purified human proteases and synthetic substrates following procedures similar to those described in Kettner et al. (1990).
# For these assays, the rate of enzymatic (thrombin, Factor Xa, and Factor VIIa) hydrolysis of chromogenic substrates (S2238 (H-D-Phe-Pip-Arg-pNA), S2222, and S2288, respectively; Kabi Pharmacia, Franklin, Ohio) was measured both in the absence and presence of compounds of the present invention. […] A decrease in the rate of absorbance change at 405 nm in the presence of inhibitor is indicative of enzyme inhibition. The results of this assay are expressed as inhibitory constant, Ki.
# Thrombin and Xa determinations were made in 0.10M sodium phosphate buffer, pH 7.5, containing 0.20M NaCl, and 0.5% PEG 8000. VIIa determinations were made in 0.05M tris buffer, pH 7.6, containing 0.10M NaCl, 4 mM CaCl2, and 0.1% bovine serum albumin.
# Reactions were allowed to go for 30 minutes and the velocities (rate of absorbance change vs time) were measured in the time frame of 25-30 minutes. The following relationship was used to calculate Ki values. [formula] where: vo is the velocity of the control in the absence of inhibitor;
# vs is the velocity in the presence of inhibitor;
# I is the concentration of inhibitor;
# Ki is the dissociation constant of the enzyme: inhibitor complex;
# S is the concentration of substrate;
# Km is the Michaelis constant.
row,Compound,Ki
1,"COC(=O)C(Cc1cccc(C#N)c1)NC(=O)C1CCCN1C(=O)C(Cc1ccccc1)NC(=O)OC(C)(C)C [Example 129, Boc--(D)Phe--Pro--(R)Phe(mCN)--OMe]",< 500 nM
2,"COCCCC(NC(=O)C1CCCN1C(=O)C(Cc1ccccc1)NC(=O)CNC(C)=O)B1OC2CC3CC(C3(C)C)C2(C)O1 (stereo not shown) [Example 144, Ac--Gly--(D)--Phe--Pro--boroGly[(CH2)3 --OCH3]--C10 H16]",< 500 nM
3,PhSO2 --(D)Phe--Pro--boroOrn(CH=NH)--OH.HCl [Example 59],< 500 nM
4,Cbz--(D)Phe--Pro--boroIrg(CH3)--C10 H16.HBr [Example 51],< 500 nM
5,"N#Cc1cccc(CC(NC(=O)C2CCCN2C(=O)C(N)Cc2ccccc2)B(O)O)c1 (stereo not shown) [Example 19, H--(D)Phe--Pro--boroPhe(m-CN)--OH.HCl]",< 500 nM
6,"CC(C)(C)OC(=O)NC(Cc1ccccc1)C(=O)N1CCCC1C(=O)NC(CCCC#N)B1OC2CC3CC(C3(C)C)C2(C)O1 (stereo not shown) [Example 122, Boc--(D)Phe--Pro--boroGly[(CH2)3 --CN]--C10 H16]",< 50000 nM
7,"CCCS(=O)(=O)N[C@H](Cc1ccccc1)C(=O)N1CCC[C@H]1C(=O)N[C@@H](CCCNC=N)B(O)O [Example 63, CH3 CH2 CH2 SO2 --(D)Phe--Pro--boroOrn(CH=NH)--OH.HCl]",< 500 nM
8,Hydrocinnamoyl-Pro--boroIrg(CH3)--OH.HBr [Example 50],< 50000 nM
9,Hydrocinnamoyl-Pro--boroIrg(CH2 CH3)--OH.HBr [Example 53],< 50000 nM
10,Ac--(D)Phe--Pro--boroIrg(CH3)--OH.HBr [Example 52],< 500 nM
11,H--(D)Phe--Pro--boroPhe(m-CN)--C10 H16.HCl [Example 18],< 500 nM
12,"CN(CC(=O)NC(CCCNC=N)B(O)O)C(=O)C(Cc1ccccc1)NS(C)(=O)=O (stereo not shown) [Example 68, Ms--(D)Phe--Sar--boroOrn(CH=NH)--OH.HCI]",< 500 nM
13,"CN(C(=O)OC(C)(C)C)C(Cc1ccccc1)C(=O)N1CCCC1C(=O)NC(Cc1cccc(C#N)c1)B1OC2CC3CC(C3(C)C)C2(C)O1 (stereo not shown) [Example 33, N--Boc--N--CH3 --(D)Phe--Pro--boroPhe(m-CN)--C10 H16]",< 500 nM
14,"CC(=O)NC(Cc1ccccc1)C(=O)N1CCCC1C(=O)NC(Cc1cccc(CN)c1)B1OC2CC3CC(C3(C)C)C2(C)O1 (stereo not shown) [Example 13, Ac--(D)Phe--Pro--boroPhe--(m-CH2NH2)--C10 H16.HCl]",< 500 nM
15,"CN(CC(=O)NC(Cc1cccc(C#N)c1)B1OC2CC3CC(C3(C)C)C2(C)O1)C(=O)C(Cc1ccccc1)NC(=O)OC(C)(C)C (stereo not shown) [Example 73, Boc--(D)Phe--Sar--boroPhe(m-CN)--C10 H16]",< 500 nM
16,N-alpha-[boroOrn(CH=NH)--OH]-(2-trans benzylcarboxamido)-cyclopentane-1-carboxamide.HCl [Example 71],< 500 nM
17,"CC(C)(C)OC(=O)NC(Cc1ccccc1)C(=O)N1CCC1C(=O)NC(Cc1cccc(C#N)c1)B1OC2CC3CC(C3(C)C)C2(C)O1 (stereo not shown) [Example 46, Boc--(D)Phe--Aze--boroPhe(m-CN)--C10 H16]",< 500 nM
18,"CC1(C)C2CC3OB(C(Cc4cccc(C#N)c4)NC(=O)C4CCCN4C(=O)CSc4ncccn4)OC3(C)C1C2 (stereo not shown) [Example 41, (2-Pyrimidylthio)acetyl-Pro--boroPhe(m-CN)--C10 H16]",< 500 nM
19,"COC(=O)C(Cc1cccc(C#N)c1)NC(=O)C1CCCN1C(=O)C(Cc1ccccc1)NC(=O)OC(C)(C)C [Example 130, Boc--(D)Phe--Pro--(S)Phe(mCN)--OMe]",< 500 nM

row,Compound,Ki
1,Hydrocinnamoyl-Pro--boroArg(CH3)--OH.HCl [Example 55],< 500 nM
2,"CC(C)(C)OC(=O)NC(Cc1ccccc1)C(=O)N1CCCC1C(=O)NC(Cc1cccc(C#N)c1)B1OC2CC3CC(C3(C)C)C2(C)O1 (stereo not shown) [Example 17, Boc--(D)Phe--Pro--boroPhe(m-CN)--C10 H16]",< 500 nM
3,"CCOCCCC(NC(=O)C1CCCN1C(=O)C(Cc1ccccc1)NC(=O)OC(C)(C)C)B1OC2CC3CC(C3(C)C)C2(C)O1 (stereo not shown) [Example 121, Boc--(D)Phe--Pro--boroGly[(CH2)3 --OCH2 CH3]--C10 H16]",< 500 nM
4,"CC(C)(C)OC(=O)NC(Cc1ccccc1)C(=O)N1CCCC1C(=O)NC(CCCNC(=O)CO)B1OC2CC3CC(C3(C)C)C2(C)O1 (stereo not shown) [Example 112, Boc--(D)Phe--Pro--boroOrn(COCH2 OH)--C10 H16]",< 500 nM
5,"CC1(C)C2CC3OB(C(Cc4cccc(C#N)c4)NC(=O)C4CCCN4)OC3(C)C1C2 (stereo not shown) [Example 26, H--Pro--boroPhe(m-CN)--C10 H16.HCl]",< 50000 nM
6,"CC(C)(C)OC(=O)NC(Cc1ccccc1)C(=O)N1CCCC1C(=O)NC(CC1CCC(N=C(N)N)CC1)B1OC2CC3CC(C3(C)C)C2(C)O1 (stereo not shown) [Example 128, Boc--(D)Phe--Pro--NH--CH[CH2 (4-guanidino-cyclohexyl)]BO2 --C10 H16]",< 500 nM
7,Ac--(D)--Phe--Pro--boroGly[(CH2)3 --OCH3 ]--C10 H16 [Example 137],< 50000 nM
8,"CC1(C)C2CC3OB(C(CCCNS(C)(=O)=O)NC(=O)[C@@H]4CCCN4C(=O)[C@@H](Cc4ccccc4)NS(=O)(=O)Cc4ccccc4)OC3(C)C1C2 (stereo partly shown) [Example 120, PhCH2 SO2 --(D)Phe--Pro--boroOrn(N-Methanesulfonyl)-C10 H16]",< 500 nM
9,"CC1(C)C2CC3OB(C(CCCNS(C)(=O)=O)NC(=O)[C@@H]4CCCN4C(=O)[C@H](N)Cc4ccccc4)OC3(C)C1C2 (stereo partly shown) [Example 114, H--(D)Phe--Pro--boroOrn(N-Methanesulfonyl)-C10 H16.HCl]",< 500 nM
10,"CC1(C)C2CC3OB(C(CCCNC=N)NC(=O)c4ccc(-c5ccccc5)cc4)OC3(C)C1C2 (stereo not shown) [Example 76, 4-(Phenyl)benzoyl-boroOrn(CH=NH)--C10 H16.HCl]",< 500 nM
11,Boc--(D)Phe--Pro--boroOrn(COCH3)--C10 H16 [Example 123],< 500 nM
12,"CC(=O)NC(Cc1ccccc1)C(=O)N1CCCC1C(=O)NC(Cc1ccc(C(=N)N)cc1)B1OC2CC3CC(C3(C)C)C2(C)O1 (stereo not shown) [Example 22, Ac--(D)Phe--Pro--boroPhe(p-C(NH)NH2)--C10 H16.BSA]",< 500 nM
13,"CC(C)(C)OC(=O)N[C@H](Cc1ccccc1)C(=O)N1CCC[C@H]1C(=O)NC(CCCNC=N)B1OC2CC3CC(C3(C)C)C2(C)O1 (stereo partly shown) [Example 6, Boc--(D)Phe--Pro--boroOrn(CH=NH)]--C10 H16.0.5 HCl.0.5 BSA]",< 500 nM
14,"CC(=O)NCC(=O)N[C@H](Cc1ccccc1)C(=O)N1CCC[C@H]1C(=O)NC(CCCNS(C)(=O)=O)B1OC2CC3CC(C3(C)C)C2(C)O1 (stereo partly shown) [Example 118, Ac--Gly--(D)Phe--Pro--BoroOrn(N-Methanesulfonyl)-C10 H16]",< 500 nM
15,"CCCS(=O)(=O)NC(Cc1ccccc1)C(=O)N1CCCC1C(=O)NC(CCCNC(=N)NC)B(O)O (stereo not shown) [Example 64, CH3 CH2 CH2 SO2 --(D)Phe--Pro--boroArg(CH3)--OH.HCl]",< 500 nM
16,H--(D)Thiazolylalanine-Pro--boroPhe(m-CN)--C10 H16.HCl [Example 29],< 500 nM
17,Boc--(D)Phe--Pro--NH--CH[4-amino-cyclohexyl]BO2 --C10 H16 [Example 126],< 500 nM
18,"CC(C)(C)OC(=O)NC(Cc1ccccc1)C(=O)N1CCCC1C(=O)NC(CCCONC(=N)N)B1OC2CC3CC(C3(C)C)C2(C)O1 (stereo not shown) [Example 104, Boc--(D)Phe--Pro--boroGly[(CH2)3 --ONHC(=NH)NH2]--C10 H16.HCl]",< 500 nM
